# According to US9610463B2, “Cosmetic or dermatological preparation comprising collagen, chitosan, glycosylaminoglycan and cell growth promoting peptide and/or cellular complex” (BEIERSDORF AG, priority 2009, dated 2017):
# “And” between values parts separate entries of the source, which are not always exact repeats. Equal entries are not always repeated.
# What was measured:
# Format in all cases: cell-based
# [1] = system: HacaT keratinocyte cell line; assay: Cell growth assay, HacaT keratinocyte cell line
# Method: (§1) The effect of the addition of MPC vs. (MPC+IDP4), GPVE vs. (GPVE+IDP4), and GPVE/MPC vs. (GPVE/MPC=IDP4) on the growth of the following cells was investigated: • 1. HacaT keratinocyte cell line • 2. NIH3T3 fibroblast cell line • 3. MSC (mesenchymal stem cells).
# (§2) Method: • (1) Cell seeding • (2) Starvation for 24 h with serum-free DMEM media • (3) Sample treatment • (4) Cultivation for 72 h • (5) Cell harvesting • (6) Cell growth assay
# [2] = system: NIH3T3 fibroblast cell line; assay: Cell growth assay, NIH3T3 fibroblast cell line
# Method: as §1, §2
# [3] = system: MSC (mesenchymal stem cells); assay: Cell growth assay, mesenchymal stem cells
# Method: as §1, §2
# [4] = system: NIH3T3 fibroblast cell line; assay: ECM expression (ELISA): procollagen expression by fibroblast cells; settings: control = 100
# Method: (§3) The effect of the addition of MPC and MPC+IDP4 on the extracellular matrix expression of procollagen, fibronectin, elastin, hyaluronic acid and laminine by the following cells was investigated: • 1. HacaT keratinocyte cell line (hyaluronic acid, laminine) • 2. NIH3T3 fibroblast cell line (procollagen, fibronectin, elastin).
# (§4) Method: • (1) Cell seeding • (2) Starvation for 24 h with serum-free DMEM media • (3) Sample treatment • (4) Cultivation for 72 h • (5) Cell supernatant collection • (6) Assay
# (§5) Assay (ELISA): • (a) Coating with capture antibody • (b) Blocking (blocking solution) • (c) Aspiration and washing each well five times • (d) Addition of sample and standard to each well • (e) Aspiration and washing each well five times • (f) Addition of conjugate to each well • (g) Aspiration and washing each well five times • (h) Addition of substrate solution to each well • (i) Addition of stop solution to each well • (j) Reading of optical density at 450 nm
# (§6) The effect of the addition of GPVE and GPVE+IDP4 on the extracellular matrix expression of procollagen, fibronectin, elastin, hyaluronic acid and laminine by the following cells was investigated: • 1. HacaT keratinocyte cell line (hyaluronic acid, laminine) • 2. NIH3T3 fibroblast cell line (procollagen, fibronectin, elastin).
# (§7) The effect of GPVE/MPC and GPVE/MPC+IDP4 on the extracellular matrix expression of procollagen, fibronectin, elastin, hyaluronic acid and laminine by the following cells was investigated: • 1. HacaT keratinocyte cell line (hyaluronic acid, laminine) • 2. NIH3T3 fibroblast cell line (procollagen, fibronectin, elastin).
# [5] = system: NIH3T3 fibroblast cell line; assay: ECM expression (ELISA): fibronectin expression by fibroblast cells; settings: control = 100
# Method: as §3, §4, §5, §6, §7
# [6] = system: NIH3T3 fibroblast cell line; assay: ECM expression (ELISA): elastin expression by fibroblast cells; settings: control = 100
# Method: as §3, §4, §5, §6, §7
# [7] = system: HacaT keratinocyte cell line; assay: ECM expression (ELISA): hyaluronic acid expression by keratinocyte cells; settings: control = 100
# Method: Method: • (1) Cell seeding • (2) Starvation for 24 h with serum-free DMEM media • (3) Sample treatment • (4) Cultivation for 72 h • (5) Cell supernatant collection • (6) Assay […]
# [8] = system: HacaT keratinocyte cell line; assay: ECM expression (ELISA): laminine expression by keratinocyte cells; settings: control = 100
# Method: as §3, §4, §5, §6, §7
# mesenchymal stem cells = assay: Protective effect against H2O2 (anti-apoptosis effect); settings: W/O H2O2; With H2O2 0% MPC = 100
# Method: The protective (anti-apoptosis) effect of the addition of MPC and MPC+IDP4 on mesenchymal stem cells against H2O2 (free radical former) was tested.
# Method: • (1) Cell seeding • (2) Starvation for 24 h with serum-free DMEM media • (3) Sample treatment • (4) Cultivation for 24 h • (5) Treatment with 5 mM H2O2 • (6) Incubation for 24 h • (7) Cell growth assay
# [9] = alone at the concentration employed (1 μg)
substance,measurement,setting,value
oligopeptide-21 [IDP4],"growth, Haca T (%)","[1]; 10 μg/ml, control = 100",148%
same,"significance of increase in growth, keratinocyte cell line",[1]; [9],did not afford any statistically significant increase in growth
same,"growth, NIH3T3 (%)","[2]; 10 μg/ml, control = 100",260%
same,"significance of increase in growth, fibroblast cell line",[2]; [9],did not afford any statistically significant increase in growth
same,"growth, MSC (%)","[3]; 10 μg/ml, control = 100",145%
same,"significance of increase in growth, mesenchymal stem cells",[3]; [9],did not afford any statistically significant increase in growth
same,procollagen %,[4]; 10 ng/ml,175%
same,procollagen %,[4]; 100 ng/ml,226%
same,procollagen %,[4]; 1 μg/ml,302%
same,procollagen %,[4]; 10 μg/ml,333%
same,fibronectin %,[5]; 10 ng/ml,101%
same,fibronectin %,[5]; 100 ng/ml,105%
same,fibronectin %,[5]; 1 μg/ml,116%
same,fibronectin %,[5]; 10 μg/ml,158%
same,elastin %,[6]; 10 ng/ml,131%
same,elastin %,[6]; 100 ng/ml,127%
same,elastin %,[6]; 1 μg/ml,137%
same,elastin %,[6]; 10 μg/ml,131% and 137%
same,hyaluronic acid %,[7]; 10 ng/ml,110%
same,hyaluronic acid %,[7]; 100 ng/ml,137.5%
same,hyaluronic acid %,[7]; 1 μg/ml,150%
same,hyaluronic acid %,[7]; 10 μg/ml,160%
same,laminine %,[8]; 10 ng/ml,115%
same,laminine %,[8]; 100 ng/ml,135%
same,laminine %,[8]; 1 μg/ml,175%
same,laminine %,[8]; 10 μg/ml,177.5%
same,"cell growth, MSC",mesenchymal stem cells,175
